Structures can show the parent of a compound that is named as a salt.
Columns and labels:
HepG2 = HepG2 toxicity (resazurin), effect normalised to DMSO (DMSO = 0); higher = more features changed / larger toxic effect; settings: incubation time: 70h incubation
HeLa [1] = assay: HeLa toxicity: nuclei-count effect normalised to DMSO (DMSO = 0); higher = more features changed / larger toxic effect; settings: incubation time: 24h incubation
HeLa [2] = assay: Cell Painting percent induction (share of features beyond 2 z-scores vs DMSO); higher = more features changed / larger toxic effect; extreme values may be limits of the assay; settings: incubation time: 24h incubation
human spermatozoa [3] = assay: total motile sperm, percent change vs DMSO (non-capacitating); higher = more of the measured sperm population than DMSO, for viability, fewer PI-positive (dead) cells than DMSO
human spermatozoa [4] = assay: viability fold change, 1 - (PI-positive fraction / DMSO median); higher = more of the measured sperm population than DMSO, for viability, fewer PI-positive (dead) cells than DMSO; settings: incubation time: 3h, non-capacitating
human spermatozoa [5] = assay: progressively motile sperm, percent change vs DMSO (capacitating); higher = more of the measured sperm population than DMSO, for viability, fewer PI-positive (dead) cells than DMSO; settings: incubation time: 30min incubation
human spermatozoa [6] = assay: hyperactivated motile sperm, percent change vs DMSO (capacitating); higher = more of the measured sperm population than DMSO, for viability, fewer PI-positive (dead) cells than DMSO; settings: incubation time: 30min incubation
human spermatozoa [7] = assay: change in acrosome-reacted (PNA+) sperm vs DMSO, no agonist (capacitating); higher = more of the measured sperm population than DMSO, for viability, fewer PI-positive (dead) cells than DMSO; settings: incubation time: 3h
human spermatozoa [8] = assay: acrosome-reacted (PNA+) sperm after agonist cocktail, percent change vs DMSO (capacitating); higher = more of the measured sperm population than DMSO, for viability, fewer PI-positive (dead) cells than DMSO; settings: incubation time: 3h, capacitating + agonist cocktail 1h
human spermatozoa [9] = assay: progressively motile sperm, percent change vs DMSO (non-capacitating); higher = more of the measured sperm population than DMSO, for viability, fewer PI-positive (dead) cells than DMSO; extreme values may be limits of the assay
[10] = incubation time: 10min incubation, 9.99 µM
[11] = incubation time: 10min incubation, 29.9 µM
[12] = incubation time: 3h incubation, 9.99 µM
[13] = incubation time: 3h incubation, 29.9 µM
[14] = incubation time: 6h incubation, 9.99 µM
[15] = incubation time: 6h incubation, 29.9 µM
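For progressively motile sperm, percent change vs DMSO (non-capacitating) in this document: pooled live human sperm from at least 3 donors, tracked by automated microscopy in 0.5 s time-lapse movies, compounds at 10 and 30 µM, versus median of 16 DMSO wells per plate.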
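For total motile sperm, percent change vs DMSO (non-capacitating) in this document: sperm pooled from at least 3 donors, tracked in 0.5 s time-lapse movies by automated microscopy after 10 min, 3 h or 6 h with compound at 10 or 30 µM.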

Row | SMILES | HepG2 toxicity (HepG2; 10 µM) [%] | HepG2 toxicity (HepG2; 30 µM) [%] | HeLa toxicity: nuclei-count effect normalised (HeLa [1]; 9.99 µM) [%] | HeLa toxicity: nuclei-count effect normalised (HeLa [1]; 29.9 µM) [%] | Cell Painting percent induction (HeLa [2]; 9.99 µM) [%] | Cell Painting percent induction (HeLa [2]; 29.9 µM) [%] | total motile sperm (human spermatozoa [3]; [10]) [%] | total motile sperm (human spermatozoa [3]; [11]) [%] | total motile sperm (human spermatozoa [3]; [12]) [%] | total motile sperm (human spermatozoa [3]; [13]) [%] | total motile sperm (human spermatozoa [3]; [14]) [%] | total motile sperm (human spermatozoa [3]; [15]) [%] | viability fold change (human spermatozoa [4]; 9.99 µM) | viability fold change (human spermatozoa [4]; 29.9 µM) | progressively motile sperm (human spermatozoa [5]; 9.99 µM) [%] | progressively motile sperm (human spermatozoa [5]; 29.9 µM) [%] | hyperactivated motile sperm (human spermatozoa [6]; 9.99 µM) [%] | hyperactivated motile sperm (human spermatozoa [6]; 29.9 µM) [%] | change in acrosome-reacted (human spermatozoa [7]; 9.99 µM) [%] | change in acrosome-reacted (human spermatozoa [7]; 29.9 µM) [%] | acrosome-reacted (human spermatozoa [8]; 9.99 µM) [%] | acrosome-reacted (human spermatozoa [8]; 29.9 µM) [%] | progressively motile sperm (human spermatozoa [9]; [10]) [%] | progressively motile sperm (human spermatozoa [9]; [11]) [%] | progressively motile sperm (human spermatozoa [9]; [12]) [%] | progressively motile sperm (human spermatozoa [9]; [13]) [%] | progressively motile sperm (human spermatozoa [9]; [14]) [%] | progressively motile sperm (human spermatozoa [9]; [15]) [%]
1 | CCOc1ccc(-c2nc(-c3cccc4c3CCC4NCCO)no2)cc1OCC (configuration not stated) [CYM 5442 hydrchloride] | 14.4 | 101 | -0.601 | 18 | 4.97 | 3.13 | 0.362 | -6.08 | 7.62 | -11.7 | 7.81 | -12.3 | -0.289 | -0.544 | 3.76 | 6.19 | 46.2 | 45.7 | 2.58 | 4.61 | 63 | 75.1 | 15.6 | 3.34 | 40 | 14.5 | 51.9 | 21.7
2 | Nc1nc(Cl)nc2c1ncn2[C@@H]1O[C@H](CO)[C@@H](O)[C@@H]1F [Clofarabine] | 12.2 | 19.6 | 47.6 | 47.5 | 0.396 | 0.54 | -6.85 | -9.16 | -17.7 | -20.8 | -25.1 | -28.8 | -0.45 | -0.516 | 10.5 | 12.9 | 206 | 262 | 1.07 | 0.866 | 87.1 | 104 | 21.7 | 19.3 | 50.7 | 35.6 | 46.2 | 29.9
3 | Clc1ccc(C(OCCN2CCCCC2)c2ccccc2)cc1 (configuration not stated) [Cloperastine hydrochloride] | 7.17 | 8.06 | 6.68 | 19.6 | 1.84 | 3.64 | 1.61 | 2.24 | -3.5 | -29.1 | -19.1 | -44 | -1.96 | -1.7 | 5.13 | -14.3 | -26.2 | -69.6 | 1.21 | 0.462 | -1.44 | -4.86 | 7.41 | -9.23 | -87 | -98.1 | -86.3 | -97.8
4 | CNS(=O)(=O)c1ccccc1Nc1nc(Nc2ccc(C3CCN(C)CC3)cc2OC)ncc1Cl [Compound 19] | 103 | 103 | 98.9 | 97.1 | 51.7 | 53.2 | -56.4 | -58.2 | -66.7 | -69.7 | -63.1 | -74.1 | -0.353 | -1.11 | -48.6 | -61.5 | -80.3 | -81.6 | 1.02 | 5.53 | -19.8 | 31.9 | -91.3 | -92.3 | -90.1 | -93.7 | -90.5 | -96
5 | CCOC(=O)CSc1nc(=O)c(NCC(=O)OC)n[nH]1 [Compound B4] | -2.06 | 5.66 | -3.67 | -5.81 | 0 | 0 | -1.27 | -2.9 | -1.69 | -8.87 | -5.02 | -14.2 | -0.743 | -0.817 | 3.54 | -5 | 141 | 283 | 0.981 | 1.58 | 78.6 | 102 | 0.38 | -0.636 | 7.69 | -26.4 | 4.42 | -27.1
6 | OCCN(CCO)c1nc(N2CCCCC2)c2nc(N(CCO)CCO)nc(N3CCCCC3)c2n1 [Dipyridamole] | -2.63 | 7.46 | 3.21 | 2 | 0.036 | 0.18 | 0.517 | -2.33 | -2.26 | -16 | -6.57 | -14.4 | -2.05 | -2.06 | 16.4 | 19.4 | 88.9 | 43.9 | 1.09 | 1.87 | 56.3 | 74.8 | 36 | 38.1 | 80.3 | 58.3 | 82.1 | 83.5
7 | CCN(CC)C(=S)SSC(=S)N(CC)CC [Disulfiram] | -2.95 | 20.2 | 16.7 | 49.8 | 0 | 0.576 | -80.8 | -91.5 | -94.3 | -91.5 | -88.6 | -93.2 | -0.587 | -1.58 | -96.3 | -99.9 | -82.7 | -88.4 | 16.4 | 16 | 86.5 | 13 | -96.4 | -100 | -100 | -99.9 | -99.3 | -100
8 | COc1ccc2nc([S@@+]([O-])Cc3ncc(C)c(OC)c3C)[nH]c2c1 [Esomeprazole] | -1.96 | 4.42 | -3.81 | -3.61 | 0 | 0 | -4.34 | -3.89 | -8.86 | -9.65 | -8.85 | -15.2 | 0.0722 | -0.272 | 15.2 | 19 | 72.4 | 123 | 0.624 | 1.41 | 25.4 | 50.1 | 11.4 | 21.1 | 37 | 43.5 | 50.4 | 35.7
9 | CC(C)C(C(=O)OC(C#N)c1cccc(Oc2ccccc2)c1)c1ccc(Cl)cc1 (configuration not stated) [Fenvalerate] | 6.05 | -6.97 | 8.15 | 4.61 | 0 | 0.036 | -12.2 | -13.5 | -9.13 | -13 | -6.57 | -13.4 | -0.675 | 0.413 | -16 | -21.3 | -11.7 | -10.3 | 1.05 | 0.945 | 16 | 11.8 | -11.9 | -13.7 | 3.76 | -3.88 | 11.3 | 5.45
